In the experiment the test system is HBV genotype C. The experiment is described as follows: Test Example 3-2: in vivo efficacy study in PXB mouse (chimeric mouse with human hepatocytes), first and second study. On the set-up: species or system hepatitis B virus. Conditions: second study, orally 3 mg/kg twice a day for 14 days from day 35, individual mice, 3 mg/kg. The procedure: An in vivo efficacy study with a PXB mouse (a chimeric mouse with human hepatocytes) was carried out in PhenixBio Co., Ltd. 19-Week-or-more-old male mice having body weights of 10.5 g or more after the elapse of 13 weeks or more from the infection with HBV genotype C were allocated into the respective groups and used. The studies were carried out twice, and a 21-day administration withdrawal period was provided between the first study and the second study.
The first administration day in the first study was taken as day 0, and the compound of Example 6-5 was orally administered at 1 mg/kg, 3 mg/kg, 10 mg/kg, and 30 mg/kg twice a day, or 0.5% methylcellulose (vehicle) was orally administered once a day for 14 days. Before administration on day 0, day 3, Day 7, and day 10, and on day 14, the blood was collected from the orbital venous plexus under anesthesia with isoflurane.
The first administration day in the second study was taken as day 35, and the compounds of Examples 19-2 and 20-2 were each orally administered at 3 mg/kg twice a day, or 0.5% methylcellulose (vehicle) was orally administered once a day for 14 days. Before administration on day 35, day 38, day 42, and day 45, the blood was collected from the orbital venous plexus under anesthesia with isoflurane. On day 49, the blood was collected from the heart under anesthesia with isoflurane.
The serum was separated from the collected blood and purified with a QIAamp (registered trademark) DNA Blood Mini Kit (manufactured by QIAGEN). The amount of HBV-DNA in the obtained solution was absolutely quantified by a real-time PCR method. In addition, the amount of HBsAg in the serum was absolutely quantified by chemiluminescent enzyme immunoassay using Lumipulse (registered trademark) HBsAg-HQ (manufactured by Fujirebio Inc.).

One compound from patent US11161830B2, “4-pyridone compound or salt thereof, and pharmaceutical composition and formulation including same” (priority 2017, dated 2021) can be followed below.

Where “and” joins values, the source holds several entries; their conditions need not be identical. Equal values may be shown once.

In the case of `COCCO[C@@H]1CCN(c2ccc(-c3cc(=O)c(C(=O)O)cn3-c3ccc4nc(N5CCC[C@@H]5COC)sc4c3)cc2)C1` [Example 19-2, 6-(4-((R)-3-(2-methoxyethoxy)pyrrolidin-1-yl)phenyl)-1-(2-((R)-2-(methoxymethyl)pyrrolidin-1-yl)benzo[d]thiazol-6-yl)-4-oxo-1,4-dihydropyridine-3-carboxylic acid], the HBV-DNA in blood runs as follows: (Day 35 (before administration)) 6.1E+08 copies/mL and 3.7E+08 copies/mL; (Day 38) 2.1E+08 copies/mL and 6.2E+08 copies/mL; (Day 42) 3.3E+08 copies/mL and 2.5E+08 copies/mL; (Day 45) 4.2E+08 copies/mL and 3.0E+08 copies/mL; (Day 49) 1.4E+08 copies/mL and 1.8E+08 copies/mL. Besides, the HBsAg in serum is, setting by setting: (Day 35 (before administration)) 1,872 IU/mL and 2,473 IU/mL; (Day 38) 968 IU/mL and 2,558 IU/mL; (Day 42) 992 IU/mL and 1,238 IU/mL; (Day 45) 1,548 IU/mL and 1,644 IU/mL; (Day 49) 1,509 IU/mL and 1,348 IU/mL.
